Assay results: ChEMBL document CHEMBL5131385, “Novel piperazine based benzamide derivatives as potential anti-glioblastoma agents inhibiting cell proliferation and cell cycle progression” (Eur J Med Chem, 2022)
The source made the active and inactive calls. The calls are words filed in the database; no cut-off is given here.

How the values were obtained:
U-251 [1] = test: Antiproliferative activity against human U-251 cells assessed as reduction in colony number at 0.25 to 1 uM for 2 to 3 weeks by crystal violet staining based plate clone formation assay; type: functional, cell-based; details: dose 0.25-1 µM, time 2-3 weeks, DDE = dose-dependent effect
U-251 [2] = test: Downregulation of pRb gene expression in human U-251 cells at 0.075 to 1.2 uM measured after 72 hrs by western blot analysis; type: functional, cell-based; details: dose 0.075-1.2 µM
U-251 [3] = test: Induction of apoptosis in human U-251 cells assessed as late apoptotic cells at 0.375 uM incubated for 72 hrs by Annexin V-FITC/PI staining based flow cytometry method (Rvb =1.31 %); type: functional
U-251 [4] = test: Induction of apoptosis in human U-251 cells assessed as early apoptotic cells at 1.50 uM incubated for 72 hrs by Annexin V-FITC/PI staining based flow cytometry method (Rvb =1.96 %); type: functional; details: dose 1.5 µM
U-251 [5] = test: Antimigratory activity in human U-251 cells assessed as inhibition of cell migration by measuring wound closure at 0.25 to 1.0 uM and measured after 24 hrs by transwell migration assay; type: functional, cell-based; details: dose 0.25-1 µM, DDE = dose-dependent effect
U-251 [6] = test: Induction of apoptosis in human U-251 cells assessed as viable cells at 6 uM incubated for 72 hrs by Annexin V-FITC/PI staining based flow cytometry method (reference value: 96.22 %); type: functional; details: read-out: Activity
U-87MG ATCC [7] = test: Antitumor activity against human U-87 MG cells xenografted in BALB/c mouse assessed as decrease in tumor weight at 10 mg/kg,ip bid for 1 month; type: functional, organism-based; details: time 1.0 months
U-251 [8] = test: Downregulation of E2F gene expression in human U-251 cells at 0.075 to 1.2 uM measured after 72 hrs by western blot analysis; type: functional, cell-based; details: dose 0.075-1.2 µM
[9] = Acute toxicity in Kunming mouse assessed as pathological changes in kidney at 600 mg/kg, ip measured after 24 hrs by H and E staining analysis; type: organism-based; details: in vivo
U-251 [10] = test: Induction of apoptosis in human U-251 cells assessed as late apoptotic cells at 6 uM incubated for 72 hrs by Annexin V-FITC/PI staining based flow cytometry method (Rvb =1.31 %); type: functional
U-251 [11] = test: Induction of apoptosis in human U-251 cells assessed as necrotic cells at 6 uM incubated for 72 hrs by Annexin V-FITC/PI staining based flow cytometry method (Rvb =0.51 %); type: functional
U-251 [12] = test: Induction of apoptosis in human U-251 cells assessed as necrotic cells at 1.50 uM incubated for 72 hrs by Annexin V-FITC/PI staining based flow cytometry method (Rvb =0.51 %); type: functional; details: dose 1.5 µM
U-251 [13] = test: Antiproliferative activity against human U-251 cells assessed as inhibition of cell proliferation measured after 72 hrs by CCK8 assay; type: functional, cell-based; details: U-251, 72 h
[14] = Induction of apoptosis in human U-87 MG cells assessed as early apoptotic cells at 1.20 uM incubated for 72 hrs by Annexin V-FITC/PI staining based flow cytometry method (reference value: 2.53 %); type: functional, U-87MG ATCC; details: dose 1.2 µM
C6 = test: Antiproliferative activity against rat C6 cells assessed as inhibition of cell proliferation measured after 72 hrs by CCK8 assay; type: functional, cell-based; details: C6, 72 h
[15] = Acute toxicity in Kunming mouse assessed as pathological changes in lung at 600 mg/kg, ip measured after 24 hrs by H and E staining analysis; type: organism-based; details: in vivo
[16] = AUC (0 to t) in Sprague-Dawley rat brain at 100 mg/kg, ip and measured upto 240 mins by LC-MS analysis; type: ADME, organism-based; set-up: dose 100 mg/kg, time < 240 min, route ip
U-251 [17] = test: Antimigratory activity in human U-251 cells assessed as inhibition of cell migration by measuring wound closure at 0.25 to 1.0 uM and measured after 24 hrs by wound healing assay; type: functional, cell-based; details: dose 0.25-1 µM, DDE = dose-dependent effect
U-87MG ATCC [18] = test: Induction of apoptosis in human U-87 MG cells assessed as reduction in cell count at 0.075 to 1.20 uM measured after 72 hrs by Giemsa staining based microscopic analysis; type: functional; details: dose 0.075-1.2 µM
U-251 [19] = test: Induction of apoptosis in human U-251 cells assessed as reduction in cell count at 0.375 to 6 uM measured after 72 hrs by Giemsa staining based microscopic analysis; type: functional; details: dose 0.375-6 µM
[20] = Half life in Sprague-Dawley rat brain at 100 mg/kg, ip and measured upto 240 mins by LC-MS analysis; type: ADME, organism-based
U-251 [21] = test: Induction of cell cycle arrest in human U-251 cells assessed as decrease in accumulation at S phase at 0.75 to 3 uM measured after 72 hrs by flow cytometry; type: functional, cell-based; details: dose 0.75-3 µM, DDE = dose-dependent effect
U-87MG ATCC [22] = test: Downregulation of cyclin D1 gene expression in human U-87 MG cells at 0.075 to 1.2 uM measured after 72 hrs by western blot analysis; type: functional, cell-based; details: dose 0.075-1.2 µM
[23] = Acute toxicity in Kunming mouse assessed as pathological changes in heart at 600 mg/kg, ip measured after 24 hrs by H and E staining analysis; type: organism-based; details: in vivo
U-87MG ATCC [24] = test: Induction of apoptosis in human U-87 MG cells assessed as morphological changes at 0.075 to 1.20 uM measured after 72 hrs by Giemsa staining based microscopic analysis; type: functional, cell-based; details: dose 0.075-1.2 µM
[25] = Cmax in Sprague-Dawley rat plasma at 100 mg/kg, ip and measured upto 240 mins by LC-MS analysis; type: ADME, organism-based; set-up: dose 100 mg/kg, time < 240 min, route ip
U-251 [26] = test: Induction of apoptosis in human U-251 cells assessed as necrotic cells at 0.375 uM incubated for 72 hrs by Annexin V-FITC/PI staining based flow cytometry method (Rvb =0.51 %); type: functional
[27] = Half life in Sprague-Dawley rat plasma at 100 mg/kg, ip and measured upto 240 mins by LC-MS analysis; type: ADME, organism-based
[28] = Tmax in Sprague-Dawley rat plasma at 100 mg/kg, ip and measured upto 240 mins by LC-MS analysis; type: ADME, organism-based
[29] = Tmax in Sprague-Dawley rat brain at 100 mg/kg, ip and measured upto 240 mins by LC-MS analysis; type: ADME, organism-based
U-251 [30] = test: Downregulation of CDK6 gene expression in human U-251 cells at 0.075 to 1.2 uM measured after 72 hrs by western blot analysis; type: functional, cell-based; details: dose 0.075-1.2 µM
U-87MG ATCC [31] = test: Antiproliferative activity against human U-87 MG cells assessed as reduction in cell proliferation at 0.125 to 0.5 uM and measured after 24 hrs by EdU incorporation based assay; type: functional; details: dose 0.125-0.5 µM, DDE = dose-dependent effect
U-87MG ATCC [32] = test: Induction of cell cycle arrest in human U-87 MG cells assessed as decrease in accumulation at S phase at 0.075 to 1.20 uM measured after 72 hrs by flow cytometry; type: functional, cell-based; details: dose 0.075-1.2 µM, DDE = dose-dependent effect
[33] = Induction of apoptosis in human U-87 MG cells assessed as early apoptotic cells at 0.075 uM incubated for 72 hrs by Annexin V-FITC/PI staining based flow cytometry method (reference value: 2.53 %); type: functional, U-87MG ATCC
U-251 [34] = test: Induction of cell cycle arrest in human U-251 cells assessed as accumulation at G0/G1 phase at 0.75 to 3 uM and measured after 72 hrs by flow cytometry; type: functional, cell-based; details: dose 0.75-3 µM, DDE = dose-dependent effect
[35] = Permeability of compound across blood brain barrier in Sprague-Dawley rat at 100 mg/kg, ip and measured after 240 mins by LC-MS analysis; type: ADME, organism-based; details: read-out: BBR

## COCCN1CCN(c2ccc(F)cc2C(=O)Nc2ccc(CNC(=O)OCc3cccnc3)cc2)CC1
U-251 [1]
  Activity: Dde
U-251 [2]
  Activity: Active
U-251 [3]
  Activity: 1.61%
U-251 [4]
  Activity: 2.9%
U-251 [5]
  Activity: Dde
U-251 [6]
  viability at 6 µM: 86.8%
U-87MG ATCC [7]
  Activity: Active
U-251 [8]
  Activity: Active
[9]
  Activity: Non-Toxic
U-251 [10]
  Activity: 5.75%
U-251 [11]
  Activity: 2.63%
U-251 [12]
  Activity: 0.94%
U-251 [13]
  IC50: 1280 nM
[14]
  Activity: 17.92%
C6
  IC50: 150 nM
[15]
  Activity: Non-Toxic
[16]
  AUC(0-t) at 4 h: 97000 ng·h/mL
U-251 [17]
  Activity: Dde
U-87MG ATCC [18]
  Activity: Active
U-251 [19]
  Activity: Active
[20]
  half-life: 43.8 min
U-251 [21]
  Activity: Dde
U-87MG ATCC [22]
  Activity: Active
[23]
  Activity: Non-Toxic
U-87MG ATCC [24]
  Activity: Active
[25]
  Cmax: 71.7 µg/mL
U-251 [26]
  Activity: 0.53%
[27]
  half-life: 52.8 min
[28]
  Tmax: 30 min
[29]
  Tmax: 30 min
U-251 [30]
  Activity: Active
U-87MG ATCC [31]
  Activity: Dde
U-87MG ATCC [32]
  Activity: Dde
[33]
  Activity: 2.76%
U-251 [34]
  Activity: Dde
[35]
  Kp at 4 h: 1.07
